Laboratory results as given in patent US10485815B2, “Substituted nucleosides, nucleotides and analogs thereof” (Alios BioPharma, Inc., priority 2012, dated 2019).

Assays:
RSV A2 (ATCC: VR-1540) = experiment: RSV RT-PCR based assay in HEp-2 cells; assay type: cell-based; conditions: human respiratory syncytial virus, 96 h; RT-PCR assay, HEp-2 cells, RSV A2 MOI 0.1, 4 days after infection; read-out: EC50
[1] = system: Influenza strain A/WSN/33 (H1N1); experiment: microbe, parasite or virus in culture; assay type: cell-based; conditions: A549, 20 h, read-out: % Inhibition
[2] = system: human parainfluenza virus 3 (hPIV3, ATCC: VR-93); experiment: Parainfluenza virus-3 (PIV-3) RT-PCR assay in A549 cells; assay type: cell-based; conditions: Human respirovirus 3, 168 h, hPIV3 MOI 0.1, 7 days after infection
hPIV3-eGFP = experiment: microbe, parasite or virus in culture; assay type: cell-based, human parainfluenza virus 3; conditions: Human respirovirus 3, A549, 72 h
human PIV type 3 = experiment: Parainfluenza virus-3 (PIV-3) plaque assay in MA-104 cells; assay type: cell-based; conditions: MA104, 72 hours infection
Method: MA-104 cells were grown in 24-well plates to a confluency of 90% in the presence of minimal essential medium (MEM) supplemented with 10% fetal bovine serum and antibiotics (C-EMEM). The cells were then washed twice with non-complete minimal essential medium (NC-EMEM). Test articles were dissolved in DMSO to a stock concentration of 10 mM. An aliquot of 0.5 mL of the test article at various concentrations was then inoculated in triplicate wells and incubated for 60 minutes at 37° C. with 5% CO2 for the diffusion of test article into MA-104 cells. […] An aliquot of 0.1 mL was then inoculated into all the wells except for the negative and test article toxicity control wells. Upon infection, the plates were incubated for 72 hours at 37° C. at 5% CO2. After incubation, the plates were examined under microscopy to record cytotoxicity. The supernatants collected for viral quantification using a standard plaque assay using MA-104 cells as the indicator cells. To perform the plaques assay, MA-104 cells were grown to confluence in 24-well plates. The cells were washed with serum-free medium prior to inoculation of duplicate wells with serial 10-fold dilutions of supernatant sample. After 1 hour incubation at 37° C., the samples were aspirated and 1.0 mL of methyl cellulose overlay media was added to each well. […]

human metapneumovirus = experiment: Human metapneumovirus (hMPV) TCID50 assay in LLC-MK2 cells; assay type: cell-based; conditions: 168 h, 7 days infection
Method: LLC-MK2 cells were grown in 24-well plates to a confluency of 90% in the presence of minimal essential medium (MEM) supplemented with 10% fetal bovine serum and antibiotics (C-EMEM). The cells were then washed twice with non-complete minimal essential medium (NC-EMEM). Test articles were dissolved in DMSO to a stock concentration of 10 mM. An aliquot of 0.5 mL of the test article at various concentrations was then inoculated in triplicate wells and incubated for 60 minutes at 37° C. with 5% CO2 for the diffusion of test article into LLC-MK2 cells. […] An aliquot of 0.1 mL was then inoculated into all the wells except for the negative and test article toxicity control wells. Upon infection, the plates were incubated for 7 days at 37° C. at 5% CO2. After incubation, the plates were examined under microscopy to record cytotoxicity. The supernatants collected for viral quantification using a standard TCID50 assay using LLC-MK2 cells as the indicator cells. The data was analyzed with Prism software with EC50 defined as drug concentration that reduced the viral load 50% from the viral control (VC).

SMILES	EC50 (RSV A2 (ATCC: VR-1540)) [µM]	EC50 [1] [µM]	EC50 [2] [µM]	EC50 (hPIV3-eGFP) [µM]	EC50 (human PIV type 3) [µM]	EC50 (human metapneumovirus) [µM]
CC[C@]1(CO)O[C@@H](n2ccc(N)nc2=O)[C@H](F)[C@@H]1O [Compound 3a]	< 1	100 to 250	< 20	< 20	< 20	< 20
Nc1ccn([C@@H]2O[C@@](CO)(CCl)[C@@H](O)[C@H]2F)c(=O)n1 [Compound 7a]	< 1	100 to 250	< 20	< 20	< 20	< 20
